Columns and labels:
[1] = xn = mol fraction of the nth substance listed; settings: 101 kPa, Liquid
[2] = 101 kPa, Liquid

C=CC#N [acrylonitrile] + O=Cc1ccccc1
[1]
Settings	mass density, 298.15 K [kg/m3]	mass density, 308.15 K [kg/m3]	mass density, 318.15 K [kg/m3]	speed of sound, 298.15 K [m/s]	viscosity, 298.15 K [mPa·s]	viscosity, 308.15 K [mPa·s]	viscosity, 318.15 K [mPa·s]
x1 = 0.182	1022	1011	1005	1412.7	1.224	1.071	0.973
x1 = 0.333	995	985	980	1394.7	1.079	0.941	0.851
x1 = 0.462	969	959	954	1353.1	0.958	0.827	0.746
x1 = 0.571	940	932	928	1322.4	0.842	0.724	0.653
x1 = 0.667	914	906	902	1292.8	0.74	0.63	0.571
x1 = 0.75	887	880	877	1259.4	0.649	0.55	0.5
x1 = 0.824	863	856	854	1237.6	0.565	0.478	0.436
x1 = 0.889	839	833	830	1212	0.484	0.416	0.379
x1 = 0.947	816	810	806	1186.8	0.41	0.358	0.328
x1 = 1	794	788	783	–	0.344	0.307	0.284

O=CC=Cc1ccccc1 [(E)-3-phenyl-2-propanal] + C=CC#N
[1]
Settings	mass density, 298.15 K [kg/m3]	mass density, 308.15 K [kg/m3]	mass density, 318.15 K [kg/m3]	speed of sound, 298.15 K [m/s]	viscosity, 298.15 K [mPa·s]	viscosity, 308.15 K [mPa·s]	viscosity, 318.15 K [mPa·s]
x2 = 0	1046	1039	1032	–	3.478	2.688	2.296
x2 = 0.2168	1017	1011	–	–	2.014	1.698	–
x2 = 0.217	–	–	1009	1487.6	–	–	1.456
x2 = 0.3837	990	985	–	–	1.4	1.215	–
x2 = 0.384	–	–	983	1433.3	–	–	1.078
x2 = 0.516	–	–	957	1403	–	–	0.83
x2 = 0.5163	964	958	–	–	1.02	0.906	–
x2 = 0.624	–	–	930	1372	–	–	0.684
x2 = 0.6241	937	931	–	–	0.795	0.724	–
x2 = 0.7135	911	905	–	–	0.646	0.603	–
x2 = 0.714	–	–	904	1330.3	–	–	0.581
x2 = 0.7889	886	881	–	–	0.56	0.519	–
x2 = 0.789	–	–	878	1288.7	–	–	0.457
x2 = 0.853	–	–	854	1251.2	–	–	0.43
x2 = 0.8532	862	856	–	–	0.474	0.441	–
x2 = 0.9088	839	833	–	–	0.423	0.405	–
x2 = 0.909	–	–	830	1224.1	–	–	0.394
x2 = 0.957	–	–	805	1186.8	–	–	0.348
x2 = 0.9573	817	810	–	–	0.388	0.359	–

O=Cc1ccccc1 [benzaldehyde] + C=CC#N
[1], x2 = 0
Settings	mass density [kg/m3]	viscosity [mPa·s]
298.15 K	1041	1.399
308.15 K	1034	1.224
318.15 K	1027	1.12

O=Cc1ccccc1 [benzaldehyde]
[2]
Settings	mass density [kg/m3]	viscosity [mPa·s]
298.15 K	1041	1.399
308.15 K	1034	1.224
318.15 K	1027	1.12

C=CC#N [acrylonitrile] + COc1ccc(C=O)cc1
[1], x1 = 1
Settings	mass density [kg/m3]	viscosity [mPa·s]
298.15 K	794	0.344
308.15 K	788	0.307
318.15 K	783	0.284

C=CC#N [acrylonitrile]
[2]
Settings	mass density [kg/m3]	viscosity [mPa·s]
298.15 K	794	0.344
308.15 K	788	0.307
318.15 K	783	0.284

C=CC#N [acrylonitrile] + O=CC=Cc1ccccc1
[1], x1 = 1
Settings	mass density [kg/m3]	viscosity [mPa·s]
298.15 K	794	0.344
308.15 K	788	0.307
318.15 K	783	0.284

O=CC=Cc1ccccc1 [(E)-3-phenyl-2-propanal]
[2]
Settings	mass density [kg/m3]	viscosity [mPa·s]
298.15 K	1046	3.478
308.15 K	1039	2.688
318.15 K	1032	2.296

COc1ccc(C=O)cc1 [4-methoxybenzaldehyde] + C=CC#N
[1]
Settings	mass density, 298.15 K [kg/m3]	mass density, 308.15 K [kg/m3]	mass density, 318.15 K [kg/m3]	speed of sound, 298.15 K [m/s]	viscosity, 298.15 K [mPa·s]	viscosity, 308.15 K [mPa·s]	viscosity, 318.15 K [mPa·s]
x2 = 0	1120	1112	1105	–	3.706	2.83	2.232
x2 = 0.222	1079	1072	1066	1446.6	2.035	1.828	1.53
x2 = 0.391	1040	1034	1029	1384.8	1.341	1.226	1.095
x2 = 0.524	1003	997	992	1345.8	0.865	0.852	0.798
x2 = 0.631	968	962	957	1310	0.742	0.678	0.644
x2 = 0.72	934	930	924	1277.6	0.55	0.538	0.515
x2 = 0.794	903	898	893	1244.6	0.545	0.469	0.443
x2 = 0.857	873	868	864	1217.8	0.415	0.404	0.39
x2 = 0.911	845	840	835	1201.6	0.435	0.369	0.37
x2 = 0.958	819	813	808	–	0.379	0.333	0.322
x2 = 0.959	–	–	–	1186.8	–	–	–

COc1ccc(C=O)cc1 [4-methoxybenzaldehyde]
[2]
Settings	mass density [kg/m3]	viscosity [mPa·s]
298.15 K	1120	3.706
308.15 K	1112	2.83
318.15 K	1105	2.232
